Data on six compounds can be found in PubChem BioAssay AID1259407 (Chemical Carcinogenesis Research Information System (CCRIS), 2018).

This series relates to CCRIS mutagenicity, Ames/micronucleus/aberration tests. Briefly: CCRIS mutagenicity studies.
Where [1] appears, read: Test System: AMES SALMONELLA TYPHIMURIUM, Strain/Indicator: TA100, Metabolic Activation: NONE, Method: STANDARD PLATE.
Setting [2] is: Test System: AMES SALMONELLA TYPHIMURIUM, Strain/Indicator: TA98, Metabolic Activation: NONE, Method: STANDARD PLATE.
The mark [3] stands for this setting: Test System: AMES SALMONELLA TYPHIMURIUM, Strain/Indicator: TA98, Metabolic Activation: RAT, LIVER, S-9, AROCLOR 1254, Method: STANDARD PLATE.
The mark [4] stands for this setting: Test System: AMES SALMONELLA TYPHIMURIUM, Strain/Indicator: TA100, Metabolic Activation: RAT, LIVER, S-9, AROCLOR 1254, Method: STANDARD PLATE.

SMILES strings stand for the structures. Active and inactive are the calls of the source. How the calls were made is not given here.

In the case of `FC(F)C(F)C(F)(F)F` (stereo not drawn), the mutagenic call runs as follows: (Test System: AMES SALMONELLA TYPHIMURIUM, Strain/Indicator: TA97, Metabolic Activation: NONE, Method: CLOSED GLASS VESSEL) “inactive; negative”; (Test System: AMES SALMONELLA TYPHIMURIUM, Strain/Indicator: TA97, Metabolic Activation: RAT LIVER S-9, AROCLOR 1254, Method: CLOSED GLASS VESSEL) “inactive; negative”; (Test System: AMES SALMONELLA TYPHIMURIUM, Strain/Indicator: TA98, Metabolic Activation: NONE, Method: CLOSED GLASS VESSEL) “inactive; negative”; (Test System: AMES SALMONELLA TYPHIMURIUM, Strain/Indicator: TA98, Metabolic Activation: RAT LIVER S-9, AROCLOR 1254, Method: CLOSED GLASS VESSEL) “inactive; negative”; (Test System: AMES SALMONELLA TYPHIMURIUM, Strain/Indicator: TA100, Metabolic Activation: NONE, Method: CLOSED GLASS VESSEL) “inactive; negative”; (Test System: AMES SALMONELLA TYPHIMURIUM, Strain/Indicator: TA100, Metabolic Activation: RAT LIVER S-9, AROCLOR 1254, Method: CLOSED GLASS VESSEL) “inactive; negative”. In addition, the mutagenic call is “inactive; negative” (Test System: AMES SALMONELLA TYPHIMURIUM, Strain/Indicator: TA1535, Metabolic Activation: NONE, Method: CLOSED GLASS VESSEL); “inactive; negative” (Test System: AMES SALMONELLA TYPHIMURIUM, Strain/Indicator: TA1535, Metabolic Activation: RAT LIVER S-9, AROCLOR 1254, Method: CLOSED GLASS VESSEL); “inactive; negative” (Test System: ESCHERICHIA COLI, Strain/Indicator: WP2 UVR A, Metabolic Activation: NONE, Method: CLOSED GLASS VESSEL); “inactive; negative” (Test System: ESCHERICHIA COLI, Strain/Indicator: WP2 UVR A, Metabolic Activation: RAT LIVER S-9, AROCLOR 1254, Method: CLOSED GLASS VESSEL).
Turning to `Fc1ccc(F)c2ncccc12`, the mutagenic call (Test System: AMES SALMONELLA TYPHIMURIUM, Strain/Indicator: TA100, Metabolic Activation: RAT LIVER S-9, PHENOBARBITAL AND 5,6-BENZOFLAVONE, Method: PREINCUBATION) is “active; positive” and the mutagenic call (Test System: AMES SALMONELLA TYPHIMURIUM, Strain/Indicator: TA100, Metabolic Activation: RAT, LIVER, S-9, PHENOBARBITAL AND 5,6-BENZOFLAVONE, Method: PREINCUBATION) is “active; positive”.
On to `O=CNc1ccc(Oc2ccc(Cl)cc2)cc1`, for which the mutagenic call is, setting by setting: under setting [1], “inactive; negative”; (Test System: AMES SALMONELLA TYPHIMURIUM, Strain/Indicator: TA100, Metabolic Activation: RAT, LIVER, S-9, KANECLOR 500, Method: STANDARD PLATE) “active; positive”.
With `C=C(C)C(=O)OCC(C)(C)C`, the mutagenic call under setting [2] was “inactive; negative”; the mutagenic call under setting [3] was “inactive; negative”; the mutagenic call (Test System: AMES SALMONELLA TYPHIMURIUM, Strain/Indicator: TA98, Metabolic Activation: RAT, LIVER, S-9, SODIUM PHENOBARBITAL, Method: STANDARD PLATE) is “inactive; negative”; the mutagenic call under setting [1] is “inactive; negative”; the mutagenic call under setting [4] is “inactive; negative”; the mutagenic call (Test System: AMES SALMONELLA TYPHIMURIUM, Strain/Indicator: TA100, Metabolic Activation: RAT, LIVER, S-9, SODIUM PHENOBARBITAL, Method: STANDARD PLATE) is “inactive; negative”. Further, the mutagenic call is, setting by setting: (Test System: AMES SALMONELLA TYPHIMURIUM, Strain/Indicator: TA1535, Metabolic Activation: NONE, Method: STANDARD PLATE) “inactive; negative”; (Test System: AMES SALMONELLA TYPHIMURIUM, Strain/Indicator: TA1535, Metabolic Activation: RAT, LIVER, S-9, AROCLOR 1254, Method: STANDARD PLATE) “inactive; negative”; (Test System: AMES SALMONELLA TYPHIMURIUM, Strain/Indicator: TA1535, Metabolic Activation: RAT, LIVER, S-9, SODIUM PHENOBARBITAL, Method: STANDARD PLATE) “inactive; negative”; (Test System: AMES SALMONELLA TYPHIMURIUM, Strain/Indicator: TA1537, Metabolic Activation: NONE, Method: STANDARD PLATE) “inactive; negative”; (Test System: AMES SALMONELLA TYPHIMURIUM, Strain/Indicator: TA1537, Metabolic Activation: RAT, LIVER, S-9, AROCLOR 1254, Method: STANDARD PLATE) “inactive; negative”; (Test System: AMES SALMONELLA TYPHIMURIUM, Strain/Indicator: TA1537, Metabolic Activation: RAT, LIVER, S-9, SODIUM PHENOBARBITAL, Method: STANDARD PLATE) “inactive; negative”. Moreover, the mutagenic call is “inactive; negative” (Test System: AMES SALMONELLA TYPHIMURIUM, Strain/Indicator: TA1538, Metabolic Activation: NONE, Method: STANDARD PLATE); “inactive; negative” (Test System: AMES SALMONELLA TYPHIMURIUM, Strain/Indicator: TA1538, Metabolic Activation: RAT, LIVER, S-9, AROCLOR 1254, Method: STANDARD PLATE); “inactive; negative” (Test System: AMES SALMONELLA TYPHIMURIUM, Strain/Indicator: TA1538, Metabolic Activation: RAT, LIVER, S-9, SODIUM PHENOBARBITAL, Method: STANDARD PLATE).
With `ClCc1c2ccccc2cc2c1ccc1ccccc12`, the mutagenic call under setting [1] is “active; positive”.
For `O=[N+]([O-])c1ccc2c3c(cccc13)CC2`, the mutagenic call was “active; positive” under setting [2]; “active; positive” under setting [3]; “active; positive” (Test System: AMES SALMONELLA TYPHIMURIUM, Strain/Indicator: TA98, Metabolic Activation: RAT, LIVER, S-9, KC500 OR PHENOBARBITAL, Method: LIQUID SUSPENSION); “active; positive” under setting [1]; “active; positive” under setting [4]; “active; positive” (Test System: AMES SALMONELLA TYPHIMURIUM, Strain/Indicator: TA100, Metabolic Activation: RAT, LIVER, S-9, KC500 OR PHENOBARBITAL, Method: LIQUID SUSPENSION). The mutagenic call (Test System: E. COLI, Strain/Indicator: WP2 UVRA, Metabolic Activation: NONE, Method: STANDARD PLATE) was “inactive; negative” and the mutagenic call (Test System: E. COLI, Strain/Indicator: WP2 UVRA, Metabolic Activation: RAT, LIVER, S-9, Method: STANDARD PLATE) is “inactive; negative”.
